Experimental data as given in ChEMBL document CHEMBL1143549, “Novel 4-amino-furo[2,3-d]pyrimidines as Tie-2 and VEGFR2 dual inhibitors” (Bioorg Med Chem Lett, 2005).

Assays:
Angiopoietin-1 receptor [1] = biological target: T1, Angiopoietin-1 receptor (Homo sapiens, UniProt Q02763); assay: Inhibitory concentration against human tyrosine protein kinase receptor TIE-2
[2] = biological target: Vascular endothelial growth factor receptor 2 (Homo sapiens, UniProt P35968); assay: Inhibitory concentration against human vascular endothelial growth factor receptor 2
Chain of Vascular endothelial growth factor receptor 2 (P35968 whole entry): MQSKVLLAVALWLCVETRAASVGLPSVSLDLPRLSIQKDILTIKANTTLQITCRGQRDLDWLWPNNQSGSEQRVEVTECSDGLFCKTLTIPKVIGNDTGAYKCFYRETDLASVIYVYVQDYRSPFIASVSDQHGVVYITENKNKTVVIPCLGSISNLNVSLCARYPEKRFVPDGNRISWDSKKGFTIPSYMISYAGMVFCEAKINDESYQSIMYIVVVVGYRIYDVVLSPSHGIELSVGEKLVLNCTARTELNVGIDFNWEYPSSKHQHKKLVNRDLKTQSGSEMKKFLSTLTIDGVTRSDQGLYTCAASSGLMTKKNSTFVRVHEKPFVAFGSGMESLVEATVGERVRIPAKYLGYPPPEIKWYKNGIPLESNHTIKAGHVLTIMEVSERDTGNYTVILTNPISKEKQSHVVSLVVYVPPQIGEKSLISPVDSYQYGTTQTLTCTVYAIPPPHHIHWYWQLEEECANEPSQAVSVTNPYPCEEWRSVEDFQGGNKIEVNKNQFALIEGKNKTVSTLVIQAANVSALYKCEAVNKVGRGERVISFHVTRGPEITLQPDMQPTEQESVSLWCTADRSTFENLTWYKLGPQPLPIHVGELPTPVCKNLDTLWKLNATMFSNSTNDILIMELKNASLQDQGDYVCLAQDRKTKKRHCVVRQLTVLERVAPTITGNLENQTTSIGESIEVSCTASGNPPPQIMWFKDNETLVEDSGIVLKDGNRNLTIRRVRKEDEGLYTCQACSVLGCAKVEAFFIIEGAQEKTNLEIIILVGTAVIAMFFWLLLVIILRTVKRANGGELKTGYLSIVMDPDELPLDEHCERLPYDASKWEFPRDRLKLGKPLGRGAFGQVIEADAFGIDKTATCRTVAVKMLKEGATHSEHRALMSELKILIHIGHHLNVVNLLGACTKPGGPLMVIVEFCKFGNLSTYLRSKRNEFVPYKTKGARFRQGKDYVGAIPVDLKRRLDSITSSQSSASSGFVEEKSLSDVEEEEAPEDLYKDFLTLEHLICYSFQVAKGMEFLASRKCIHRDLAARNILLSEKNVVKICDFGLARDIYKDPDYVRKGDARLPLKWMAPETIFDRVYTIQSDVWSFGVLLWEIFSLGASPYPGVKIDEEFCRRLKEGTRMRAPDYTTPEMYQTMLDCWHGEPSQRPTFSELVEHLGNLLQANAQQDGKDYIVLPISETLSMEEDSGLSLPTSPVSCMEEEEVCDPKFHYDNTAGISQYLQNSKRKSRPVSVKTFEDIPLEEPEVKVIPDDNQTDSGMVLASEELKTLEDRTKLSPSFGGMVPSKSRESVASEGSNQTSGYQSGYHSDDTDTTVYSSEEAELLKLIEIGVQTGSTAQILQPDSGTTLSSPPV

HFF = assay: Cytotoxic concentration against HFF cells was determined; type: functional, cell-based; conditions: Homo sapiens
HUVEC = assay: Concentration required for growth inhibition of human umbilical vein endothelial cells stimulated by VEGF; type: functional, cell-based
Angiopoietin-1 receptor [3] = biological target: T1, Angiopoietin-1 receptor; assay: Concentration required to inhibit autophosphorylation of tyrosine protein kinase receptor TIE-2 transfected in 3T3 cells; type: functional, cell-based, NIH3T3

T1 sequence (Q02763 whole entry): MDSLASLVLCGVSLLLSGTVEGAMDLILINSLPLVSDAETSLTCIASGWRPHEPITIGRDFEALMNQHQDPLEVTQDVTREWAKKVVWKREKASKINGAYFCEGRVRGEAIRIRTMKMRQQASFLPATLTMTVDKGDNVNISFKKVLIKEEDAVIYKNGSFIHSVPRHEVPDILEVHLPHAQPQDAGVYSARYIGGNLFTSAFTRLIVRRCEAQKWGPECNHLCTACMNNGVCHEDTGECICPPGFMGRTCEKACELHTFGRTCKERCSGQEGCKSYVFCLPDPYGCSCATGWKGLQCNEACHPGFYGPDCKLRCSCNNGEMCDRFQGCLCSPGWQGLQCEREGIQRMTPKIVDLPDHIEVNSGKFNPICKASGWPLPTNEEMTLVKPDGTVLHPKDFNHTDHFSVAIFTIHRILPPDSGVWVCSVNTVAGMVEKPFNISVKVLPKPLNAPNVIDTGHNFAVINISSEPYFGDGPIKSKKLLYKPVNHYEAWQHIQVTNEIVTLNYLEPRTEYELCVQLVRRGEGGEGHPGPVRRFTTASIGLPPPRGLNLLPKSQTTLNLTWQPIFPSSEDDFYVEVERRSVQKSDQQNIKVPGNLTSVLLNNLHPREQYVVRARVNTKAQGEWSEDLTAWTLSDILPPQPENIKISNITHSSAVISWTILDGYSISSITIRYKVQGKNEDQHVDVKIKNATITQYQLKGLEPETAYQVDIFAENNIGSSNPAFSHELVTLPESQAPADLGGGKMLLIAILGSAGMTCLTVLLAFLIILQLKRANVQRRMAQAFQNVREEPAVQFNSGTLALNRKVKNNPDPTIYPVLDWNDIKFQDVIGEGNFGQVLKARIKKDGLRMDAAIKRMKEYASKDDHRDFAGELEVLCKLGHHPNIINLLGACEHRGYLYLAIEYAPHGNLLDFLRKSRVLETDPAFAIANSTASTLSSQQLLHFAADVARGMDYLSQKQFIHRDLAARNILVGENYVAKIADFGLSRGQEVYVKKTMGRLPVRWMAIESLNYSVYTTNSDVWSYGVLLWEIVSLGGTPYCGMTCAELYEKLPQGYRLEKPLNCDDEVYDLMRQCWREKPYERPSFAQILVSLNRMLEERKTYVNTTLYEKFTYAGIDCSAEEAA

IC50 (Angiopoietin-1 receptor [1]) | IC50 [2] | IC50 (Angiopoietin-1 receptor [3]) | Structure (SMILES) | IC50 (HFF) | IC50 (HUVEC)
2 nM | 3 nM | 6.3 nM | COc1ccc(-c2oc3ncnc(N)c3c2-c2ccc(NC(=O)Nc3cc(C(F)(F)F)ccc3F)cc2)cc1 | 790 nM | 45 nM
– | > 20000 nM | – | COc1ccc(-c2c(-c3ccc(Cl)c(Cl)c3)oc3ncnc(N)c23)cc1 | – | –
> 20000 nM | 5500 nM | – | COc1ccc(-c2coc3ncnc(N)c23)cc1 [GW642125X] | – | –
1000 nM | 1120 nM | – | COc1ccc(-c2oc3ncnc(N)c3c2-c2ccc(OC)cc2)cc1 | – | –
> 20000 nM | > 17000 nM | – | COc1ccc(-c2cc3c(N)ncnc3o2)cc1 [GW642138X] | – | –
> 20000 nM | – | – | COc1ccc(-c2oc3ncnc(N)c3c2-c2cccc(NC(C)=O)c2)cc1 | – | –
